Test results taken from PubChem BioAssay AID977613 (Broad Institute, 2014).
Activity calls are given as the source filed them. How the calls were made is not given here.

system: Broad 7084-01 inhibitor HTS, set 2; experiment: inhibitors in Broad screen 7084-01, set 2 (AID 977613);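 further: host cells are infected with parasite promastigotes that become internalized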

Row | Structure (SMILES) | active concentration
1 | COc1ccc2c3c([nH]c2c1)[C@@H](CO)NCC31CN(C(=O)Nc2ccc3c(c2)OCO3)C1 | > 10 µM (inactive)
2 | COCCNC(=O)[C@H]1[C@H](CO)[C@H]2Cn3c(ccc(-c4cccc(F)c4)c3=O)[C@@H]1N2C(=O)NC(C)C | > 10 µM (inactive)
3 | O=C(NCC1CCCCC1)[C@@H]1[C@@H](CO)[C@@H]2Cn3c(ccc(-c4cncnc4)c3=O)[C@H]1N2 | > 10 µM (inactive)
4 | O=C(Cc1ccncc1)N1CC(=O)N2[C@H](CO)[C@H](c3ccc(Br)cc3)[C@@H]2C1 | > 10 µM (inactive)
5 | CN(C)C(=O)C[C@@H]1CC[C@@H]2[C@H](COC[C@H](O)CN2C(=O)C2CC2)O1 | > 10 µM (inactive)
6 | O=C(Cc1ccccc1)N1C[C@H]2[C@@H](c3ccccc31)[C@@H](CO)N2C(=O)c1cccc(F)c1 | > 10 µM (inactive)
7 | Cc1noc(C)c1NC(=O)Nc1ccc2c(c1)C(=O)N(C)[C@H]1CC[C@H](CC(=O)NCc3ccc(Cl)cc3)O[C@@H]1CO2 | > 10 µM (inactive)
8 | COc1ccc(C#Cc2ccc3c(c2)[C@H]2[C@H](CCN2C(=O)c2cccc(F)c2)[C@@H](CO)N3)cc1 | > 10 µM (inactive)
9 | CCNC(=O)[C@H]1[C@H](CO)[C@H]2Cn3c(ccc(-c4ccccc4)c3=O)[C@H]2N1CC | > 10 µM (inactive)
10 | O=C(Nc1cc(F)ccc1F)N1CCCCN2[C@@H](CO)[C@@H](c3ccc(C4=CCCCC4)cc3)[C@@H]2C1 | > 10 µM (inactive)
11 | COC(=O)C[C@H]1CC[C@@H]2[C@H](COc3ccc(NC(=O)c4cccc(Cl)c4)cc3C(=O)N2C)O1 | > 10 µM (inactive)
12 | O=C(c1cnccn1)N1CC(=O)N2[C@H](CO)[C@@H](c3ccc(C#CC4CC4)cc3)[C@H]2C1 | > 10 µM (inactive)
13 | CN(C)CC(=O)N1[C@@H](CO)[C@@H](c2ccccc2)C12CN(Cc1cc(F)ccc1F)C2 | > 10 µM (inactive)
14 | OC[C@@H]1[C@H](c2ccc(C#CC3(O)CCCC3)cc2)[C@@H]2CN(Cc3cncnc3)CCCCN12 | > 10 µM (inactive)
15 | O=C(C[C@@H]1CC[C@@H]2[C@H](COC[C@@H](O)CN2C(=O)C2CC2)O1)NCc1ccncc1 | > 10 µM (inactive)
16 | CCCNC(=O)N1CC(=O)N2[C@H](C1)[C@H](c1ccc(-c3ccc(F)cc3)cc1)[C@@H]2CO | > 10 µM (inactive)
17 | COCC(=O)N1[C@H](C#N)[C@@H](c2ccccc2-c2ccccc2F)[C@@H]1CO | > 10 µM (inactive)
18 | CN1C(=O)c2cc(NC(=O)Cc3cccs3)ccc2OC[C@H]2O[C@H](CC(=O)N[C@@H]3CCN(Cc4ccccc4)C3)CC[C@H]21 | > 10 µM (inactive)
19 | O=C(C[C@H]1CC[C@H]2[C@@H](COC[C@@H](O)CN2Cc2cccc(C(F)(F)F)c2)O1)NCc1ccccc1 | > 10 µM (inactive)
20 | O=C(C[C@H]1CC[C@@H]2[C@H](COC[C@@H](O)CN2S(=O)(=O)c2cccc(F)c2)O1)Nc1ccc(-c2ccccc2)cc1 | > 10 µM (inactive)
21 | CC(=O)N1[C@@H](CO)[C@@H](c2ccc(C3=CCCC3)cc2)C12CN(C(=O)NC(C)C)C2 | > 10 µM (inactive)
22 | O=C(C[C@@H]1CC[C@H]2[C@@H](COC[C@H](O)CN2S(=O)(=O)c2cccc(F)c2)O1)Nc1ccc(-c2ccccc2)cc1 | > 10 µM (inactive)
23 | O=C(Cc1ccccc1)N1C[C@@H]2[C@H](c3ccccc31)[C@@H](CO)N2C(=O)c1cccc(F)c1 | > 10 µM (inactive)
24 | CN(C)CC(=O)N1CCCCN2[C@@H](CO)[C@@H](c3ccc(/C=C/c4ccccc4)cc3)[C@@H]2C1 | < 10 µM

Row | Structure (SMILES) | active concentration
25 | CCCNC(=O)N1[C@@H](CO)[C@@H](c2ccccc2)C12CN(C(=O)C1CCCCC1)C2 | > 10 µM (inactive)
26 | Cc1ccccc1-c1ccc([C@H]2[C@H]3CN(S(=O)(=O)Cc4ccccc4)CCCCN3[C@H]2CO)cc1 | > 10 µM (inactive)
27 | OC[C@H]1[C@H](c2ccc(Br)cc2)[C@H]2CN(Cc3ccccn3)CCCCN21 | < 10 µM
28 | COC(=O)[C@@H]1[C@@H](CO)[C@@H]2Cn3c(cccc3=O)[C@H]1N2Cc1nccs1 | > 10 µM (inactive)
29 | N#C[C@H]1[C@H](c2ccccc2-c2ccccc2)[C@@H](CO)N1C(=O)Cc1ccncc1 | > 10 µM (inactive)
30 | OC[C@@H]1[C@H](c2ccc(C3=CCCC3)cc2)[C@H]2CN(Cc3ccncc3)CCCCN12 | > 10 µM (inactive)
31 | C/C=C/c1ccccc1[C@@H]1[C@@H](CO)N(C(=O)Cc2ccccn2)[C@H]1C#N | > 10 µM (inactive)
32 | CCCNC(=O)[C@@H]1[C@@H](CO)[C@@H]2Cn3c(cccc3=O)[C@@H]2N1C | > 10 µM (inactive)
33 | COc1ccccc1CN1[C@H](CO)[C@@H]2c3ccccc3N(C(=O)c3cccnc3)C[C@@H]21 | > 10 µM (inactive)
34 | COCC(=O)N1CC2(CCN(C(=O)c3ccccn3)CC2)c2c(n(C)c3cc(OC)ccc23)[C@H]1CO | > 10 µM (inactive)
35 | O=C(CN1CCOCC1)N1CC(=O)N2[C@H](C1)[C@@H](c1ccc(-c3cccc(F)c3)cc1)[C@@H]2CO | > 10 µM (inactive)
36 | CN(C)C(=O)c1ccc(-c2ccc3c(c2)[C@@H]2[C@@H](CCN2Cc2ccc4c(c2)OCO4)[C@@H](CO)N3)cc1 | > 10 µM (inactive)
37 | CCC(=O)N1CC2(C1)CN(C(=O)c1cnccn1)[C@H](CO)c1c2c2ccc(OC)cc2n1C | > 10 µM (inactive)
38 | COc1cccc(-c2ccc3c(c2)[C@@H]2[C@@H](CCN2S(=O)(=O)c2cn(C)cn2)[C@@H](CO)N3)c1 | > 10 µM (inactive)
39 | CCS(=O)(=O)N1CC2(CN(C(=O)Cc3ccccn3)[C@H](CO)c3[nH]c4cc(OC)ccc4c32)C1 | > 10 µM (inactive)
40 | CN1C(=O)c2cc(NC(=O)C3CCOCC3)ccc2OC[C@H]2O[C@@H](CC(=O)NCC3CCCCC3)CC[C@H]21 | > 10 µM (inactive)
41 | Cc1ccccc1-c1ccccc1[C@@H]1[C@@H](C#N)N(C(=O)c2ccccc2)[C@H]1CO | > 10 µM (inactive)
42 | Cc1ccc(S(=O)(=O)N2CC[C@H]3[C@H](CO)Nc4ccc(C#Cc5ccc(F)cc5)cc4[C@H]32)cc1 | > 10 µM (inactive)
43 | O=C(c1cnccn1)N1CC(=O)N2[C@H](CO)[C@@H](c3ccc(C#CC4CC4)cc3)[C@@H]2C1 | > 10 µM (inactive)
44 | CC(C)NC(=O)N1CC[C@@H]2[C@H]1c1cc(Br)ccc1N(C)[C@H]2CO | > 10 µM (inactive)
45 | COc1ccc2c3c([nH]c2c1)[C@@H](CO)N(Cc1ccccc1OC)CC31CN(C(C)=O)C1 | > 10 µM (inactive)
46 | CCNC(=O)Nc1ccc2c(c1)C(=O)N(C)[C@H]1CC[C@H](CC(=O)N[C@@H](C)c3ccccc3)O[C@H]1CO2 | > 10 µM (inactive)
47 | CN1C(=O)c2cc(NC(=O)c3ccc(F)c(F)c3)ccc2OC[C@H]2O[C@@H](CC(=O)N[C@H]3CCN(Cc4ccccc4)C3)CC[C@@H]21 | > 10 µM (inactive)
48 | O=C(C[C@H]1CC[C@@H]2[C@H](COC[C@@H](O)CN2S(=O)(=O)c2cccc(Cl)c2)O1)NC1CCC1 | > 10 µM (inactive)

Row | Structure (SMILES) | active concentration
49 | CN1C(=O)c2cc(NS(C)(=O)=O)ccc2OC[C@H]2O[C@@H](CC(=O)NC3CCCCC3)CC[C@H]21 | > 10 µM (inactive)
50 | O=C(C1CC1)N1CC2(C1)[C@H](c1ccccc1)[C@H](CO)N2Cc1nccs1 | > 10 µM (inactive)
51 | N#C[C@@H]1[C@@H](c2ccccc2C2=CCCCC2)[C@@H](CO)N1C(=O)c1cccc(F)c1 | > 10 µM (inactive)
52 | Cc1nn(C)cc1NC(=O)C[C@@H]1CC[C@@H]2[C@H](COc3ccc(NC(=O)C4CCOCC4)cc3C(=O)N2C)O1 | > 10 µM (inactive)
53 | CCCN1[C@@H]2c3ccc(-c4cncnc4)c(=O)n3C[C@@H]2[C@@H](CO)[C@@H]1C(=O)OC | > 10 µM (inactive)
54 | O=C(C[C@@H]1CC[C@H]2[C@@H](COC[C@@H](O)CN2Cc2ccc3c(c2)OCO3)O1)Nc1ccccc1 | > 10 µM (inactive)
55 | CCS(=O)(=O)N1[C@H](CO)[C@@H](c2ccccc2)C12CN(C(=O)C1CCCCC1)C2 | > 10 µM (inactive)
56 | CCNC(=O)C[C@H]1CC[C@@H]2[C@H](COC[C@H](O)CN2C(=O)C2CC2)O1 | > 10 µM (inactive)
57 | COc1cccc(C#Cc2ccc3c(c2)[C@@H]2[C@@H](CCN2C(=O)CC2CC2)[C@@H](CO)N3)c1 | > 10 µM (inactive)
58 | Cc1ccccc1-c1ccc([C@@H]2[C@@H](CO)N3CCCCN(S(=O)(=O)Cc4ccccc4)C[C@H]23)cc1 | > 10 µM (inactive)
59 | CN1c2ccc(-c3ccc(C#N)cc3)cc2[C@@H]2[C@@H](CCN2C(=O)Nc2cccc(F)c2)[C@@H]1CO | > 10 µM (inactive)
60 | CN(C)CC(=O)N1[C@@H](CO)[C@@H](c2ccccc2)C12CN(CCC(F)(F)F)C2 | > 10 µM (inactive)
61 | CC=Cc1ccc2n(c1=O)C[C@@H]1[C@@H](CO)[C@H](C(=O)N[C@@H](C)c3ccccc3)N(C(=O)c3cnccn3)[C@H]21 (mixture of isomers) | > 10 µM (inactive)
62 | O=C(Nc1ccc(F)cc1)N1[C@@H](CO)[C@@H]2c3ccccc3NC[C@@H]21 | > 10 µM (inactive)
63 | CN1C(=O)c2cc(NC(=O)c3ccc(F)c(F)c3)ccc2OC[C@H]2O[C@@H](CC(=O)N[C@@H]3CCN(Cc4ccccc4)C3)CC[C@H]21 | > 10 µM (inactive)
64 | COc1cccc(C(=O)N2C[C@@H]3[C@H](c4ccccc42)[C@H](CO)N3Cc2ccccc2Cl)c1 | > 10 µM (inactive)
65 | CN1c2ccc(Br)cc2[C@@H]2[C@@H](CCN2S(=O)(=O)c2cccc(F)c2)[C@@H]1CO | > 10 µM (inactive)
66 | CN1C(=O)c2cc(NS(C)(=O)=O)ccc2OC[C@H]2O[C@@H](CC(=O)NC3CCCCC3)CC[C@@H]21 | > 10 µM (inactive)
67 | O=C(CC1CC1)N1[C@H](CO)[C@@H](c2ccccc2)C12CN(Cc1ccccc1F)C2 | > 10 µM (inactive)
68 | CN1C(=O)c2cc(NC(=O)c3cccc(F)c3)ccc2OC[C@@H]2O[C@@H](CC(=O)NCC3CCCCC3)CC[C@H]21 | > 10 µM (inactive)
69 | O=C(C1CCC1)N1CC2(C1)[C@H](c1ccccc1)[C@H](CO)N2Cc1cccnc1 | > 10 µM (inactive)
70 | C/C=C/c1ccc([C@H]2[C@@H](CO)N(CCC(F)(F)F)C23CN(C(=O)COC)C3)cc1 | > 10 µM (inactive)
